Experimental data as given in PubChem BioAssay (NCI).
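GI50 = concentration required for 50% inhibition of growth. At the TGI there is no net growth.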

How the values were obtained:
Experiment in all cases: inhibition of tumour cell growth, NCI panel, 384-well format
UACC-62 melanoma = system: UACC-62 melanoma
COLO 205 colon = system: COLO 205 colon
KM12 colon = system: KM12 colon
A549 NSCLC = system: A549 NSCLC
BT-549 breast = system: BT-549 breast
SF-268 CNS = system: SF-268 CNS
NCI-H322M lung = system: NCI-H322M lung
HCC-2998 colon = system: HCC-2998 colon
OVCAR-3 ovarian = system: OVCAR-3 ovarian
SW-620 colon = system: SW-620 colon
MDA-MB-468 breast = system: MDA-MB-468 breast
A498 renal = system: A498 renal
NCI-H522 lung = system: NCI-H522 lung
CAKI-1 renal = system: CAKI-1 renal
786-0 renal = system: 786-0 renal
NCI-H226 lung = system: NCI-H226 lung
T-47D breast = system: T-47D breast
SNB-19 CNS = system: SNB-19 CNS
UO-31 renal = system: UO-31 renal
HOP-62 NSCLC = system: HOP-62 NSCLC
HS 578T breast = system: HS 578T breast
SR leukemia = system: SR leukemia
M14 melanoma = system: M14 melanoma
U251 glioblastoma = system: U251 glioblastoma
RPMI-8226 leukemia = system: RPMI-8226 leukemia
UACC-257 melanoma = system: UACC-257 melanoma
IGROV1 ovarian = system: IGROV1 ovarian
SN12C renal = system: SN12C renal
HT29 colon = system: HT29 colon
SNB-75 CNS = system: SNB-75 CNS
LOX IMVI melanoma = system: LOX IMVI melanoma
SK-MEL-5 melanoma = system: SK-MEL-5 melanoma
SF-295 CNS = system: SF-295 CNS
NCI-H460 NSCLC = system: NCI-H460 NSCLC
ACHN renal = system: ACHN renal
SK-MEL-2 melanoma = system: SK-MEL-2 melanoma
MCF7 breast = system: MCF7 breast
OVCAR-4 ovarian = system: OVCAR-4 ovarian
HOP-92 NSCLC = system: HOP-92 NSCLC
DU-145 prostate = system: DU-145 prostate
TK-10 renal = system: TK-10 renal
MOLT-4 leukemia = system: MOLT-4 leukemia
MDA-MB-231 breast = system: MDA-MB-231 breast
SK-MEL-28 melanoma = system: SK-MEL-28 melanoma
NCI-H23 lung = system: NCI-H23 lung
SF-539 CNS = system: SF-539 CNS
HL-60(TB) leukemia = system: HL-60(TB) leukemia
EKVX NSCLC = system: EKVX NSCLC
SK-OV-3 ovarian = system: SK-OV-3 ovarian
HCT-15 colon = system: HCT-15 colon
RXF 393 renal = system: RXF 393 renal
K-562 leukemia = system: K-562 leukemia
PC-3 prostate = system: PC-3 prostate
MDA-MB-435 melanoma = system: MDA-MB-435 melanoma
MALME-3M melanoma = system: MALME-3M melanoma
NCI/ADR-RES ovarian = system: NCI/ADR-RES ovarian
OVCAR-5 ovarian = system: OVCAR-5 ovarian
CCRF-CEM leukemia = system: CCRF-CEM leukemia
HCT-116 colon = system: HCT-116 colon

Cc1cc([N+](=O)[O-])ccc1NS(=O)(=O)c1cc(Cl)ccc1Cl
GI50 (UACC-62 melanoma): 13.3 µM
TGI (UACC-62 melanoma): 33.3 µM
GI50 (COLO 205 colon): 17.1 µM
TGI (COLO 205 colon): 78 µM
GI50 (KM12 colon): 6.61 µM
TGI (KM12 colon): 43.9 µM
GI50 (A549 NSCLC): 4.62 µM
TGI (A549 NSCLC): 24 µM
GI50 (BT-549 breast): 3.08 µM
TGI (BT-549 breast): 8.84 µM
GI50 (SF-268 CNS): 3.78 µM
TGI (SF-268 CNS): 27.5 µM
GI50 (NCI-H322M lung): 3.85 µM
TGI (NCI-H322M lung): 16.4 µM
GI50 (HCC-2998 colon): 5.29 µM
TGI (HCC-2998 colon): 24.5 µM
GI50 (OVCAR-3 ovarian): 3.56 µM
TGI (OVCAR-3 ovarian): 15.4 µM
GI50 (SW-620 colon): 5.93 µM
TGI (SW-620 colon): 46 µM
GI50 (MDA-MB-468 breast): 2.16 µM
TGI (MDA-MB-468 breast): 9.32 µM
GI50 (A498 renal): 4.63 µM
TGI (A498 renal): 22.6 µM
GI50 (NCI-H522 lung): 2.87 µM
TGI (NCI-H522 lung): 8.65 µM
GI50 (CAKI-1 renal): 5.52 µM
TGI (CAKI-1 renal): 39 µM
GI50 ([…]-0 renal): 7.49 µM
TGI (786-0 renal): 33.6 µM
GI50 (NCI-H226 lung): 6.27 µM
TGI (NCI-H226 lung): 20.2 µM
GI50 (T-47D breast): 2.65 µM
TGI (T-47D breast): 6.31 µM
GI50 (SNB-19 CNS): 5.5 µM
TGI (SNB-19 CNS): 75.6 µM
GI50 (UO-31 renal): 12.4 µM
TGI (UO-31 renal): 43.9 µM
GI50 (HOP-62 NSCLC): 13.5 µM
TGI (HOP-62 NSCLC): 35.5 µM
GI50 (HS 578T breast): 3.02 µM
TGI (HS 578T breast): 10.6 µM
GI50 (SR leukemia): 19.1 µM
TGI (SR leukemia): 33.3 µM
GI50 (M14 melanoma): 16.9 µM
TGI (M14 melanoma): 68.3 µM
GI50 (U251 glioblastoma): 2.91 µM
TGI (U251 glioblastoma): 10.5 µM
GI50 (RPMI-8226 leukemia): 2.09 µM
TGI (RPMI-8226 leukemia): 4.48 µM
GI50 (UACC-257 melanoma): 4.95 µM
TGI (UACC-257 melanoma): 19.2 µM
GI50 (IGROV1 ovarian): 18.9 µM
TGI (IGROV1 ovarian): > 100 µM
GI50 (SN12C renal): 5.83 µM
TGI (SN12C renal): 49.4 µM
GI50 (HT29 colon): 4.53 µM
TGI (HT29 colon): > 100 µM
GI50 (SNB-75 CNS): 9.67 µM
TGI (SNB-75 CNS): 35.4 µM
GI50 (LOX IMVI melanoma): 3.74 µM
TGI (LOX IMVI melanoma): 13.3 µM
GI50 (SK-MEL-5 melanoma): 2.45 µM
TGI (SK-MEL-5 melanoma): 7.27 µM
GI50 (SF-295 CNS): 3.99 µM
TGI (SF-295 CNS): 22.1 µM
GI50 (NCI-H460 NSCLC): 2.89 µM
TGI (NCI-H460 NSCLC): 11.6 µM
GI50 (ACHN renal): 14.4 µM
TGI (ACHN renal): 67.9 µM
GI50 (SK-MEL-2 melanoma): 33.1 µM
TGI (SK-MEL-2 melanoma): 49.5 µM
GI50 (MCF7 breast): 7.65 µM
TGI (MCF7 breast): 25.2 µM
GI50 (OVCAR-4 ovarian): 6.02 µM
TGI (OVCAR-4 ovarian): > 100 µM
GI50 (HOP-92 NSCLC): 3.63 µM
TGI (HOP-92 NSCLC): 16.4 µM
GI50 (DU-145 prostate): 10.1 µM
TGI (DU-145 prostate): > 100 µM
GI50 (TK-10 renal): 11.4 µM
TGI (TK-10 renal): > 100 µM
GI50 (MOLT-4 leukemia): 7.48 µM
TGI (MOLT-4 leukemia): 20.2 µM
GI50 (MDA-MB-231 breast): 5.07 µM
TGI (MDA-MB-231 breast): 30.8 µM
GI50 (SK-MEL-28 melanoma): 5.46 µM
TGI (SK-MEL-28 melanoma): 32.4 µM
GI50 (NCI-H23 lung): 2.98 µM
TGI (NCI-H23 lung): 13.1 µM
GI50 (SF-539 CNS): 5.29 µM
TGI (SF-539 CNS): 20.1 µM
GI50 (HL-60(TB) leukemia): 2.74 µM
TGI (HL-60(TB) leukemia): 5.97 µM
GI50 (EKVX NSCLC): 3.64 µM
TGI (EKVX NSCLC): 14.6 µM
GI50 (SK-OV-3 ovarian): 13.8 µM
TGI (SK-OV-3 ovarian): 49.8 µM
GI50 (HCT-15 colon): 3.44 µM
TGI (HCT-15 colon): 14.9 µM
GI50 (RXF 393 renal): 4.56 µM
TGI (RXF 393 renal): 22.3 µM
GI50 (K-562 leukemia): 7.36 µM
TGI (K-562 leukemia): 55.7 µM
GI50 (PC-3 prostate): 3.59 µM
TGI (PC-3 prostate): 14.6 µM
GI50 (MDA-MB-435 melanoma): 3.21 µM
TGI (MDA-MB-435 melanoma): 26.6 µM
GI50 (MALME-3M melanoma): 5.38 µM
TGI (MALME-3M melanoma): 24.4 µM
GI50 (NCI/ADR-RES ovarian): 3.26 µM
TGI (NCI/ADR-RES ovarian): 15.9 µM
GI50 (OVCAR-5 ovarian): 12.9 µM
TGI (OVCAR-5 ovarian): 44.1 µM
GI50 (CCRF-CEM leukemia): 5.19 µM
TGI (CCRF-CEM leukemia): 18.4 µM
GI50 (HCT-116 colon): 4.45 µM
TGI (HCT-116 colon): 16 µM
